Assays:
L1210 = test: In vitro cytotoxicity determined against murine leukemia L1210 cells by MTT assay; assay type: functional, cell-based; settings: Mus musculus
KB = test: In vitro cytotoxicity determined against human epidermoid carcinoma KB cells by MTT assay; assay type: functional, cell-based

Compound	IC50 (L1210) [nM]	IC50 (KB) [nM]
CCCCn1c2nc(=O)n(C)c(=O)c-2cc2c1C(=O)C(OC)=CC2=O	1200	900
CCCCn1c2nc(=O)n(-c3ccccc3)c(=O)c-2cc2c1C(=O)C(=O)c1ccccc1-2	4900	28200
CCCCCCn1c2nc(=O)n(C)c(=O)c-2cc2c1C(=O)C(=O)c1ccccc1-2	100	800
CCCCCCCCn1c2nc(=O)n(-c3ccccc3)c(=O)c-2cc2c1C(=O)C(=O)c1ccccc1-2	3100	22900
CCCCCCCCCCCCn1c2nc(=O)n(C)c(=O)c-2cc2c1C(=O)C(=O)c1ccccc1-2	300	200
CCCCCCCCCCCCn1c2nc(=O)n(-c3ccccc3)c(=O)c-2cc2c1C(=O)C(OC)=CC2=O	2700	300
CCCCCCCCCCCCn1c2nc(=O)[nH]c(=O)c-2cc2c1C(=O)C(OC)=CC2=O	2500	12700
CCCn1c2nc(=O)n(C)c(=O)c-2cc2c1C(=O)C(=O)c1ccccc1-2	700	1200
CCCCCCCCn1c2nc(=O)n(-c3ccccc3)c(=O)c-2cc2c1C(=O)C(OC)=CC2=O	1800	1000
CCCCn1c2nc(=O)n(C)c(=O)c-2cc2c1C(=O)C(=O)c1ccccc1-2	400	200
CCCCCCn1c2nc(=O)n(C)c(=O)c-2cc2c1C(=O)C(OC)=CC2=O	500	600
CCn1c2nc(=O)n(C)c(=O)c-2cc2c3ccccc3cc(OC)c21	> 50000	> 50000
CCCCCCCCn1c2nc(=O)n(C)c(=O)c-2cc2c1C(=O)C(=O)c1ccccc1-2	400	1700
CCn1c2nc(=O)n(C)c(=O)c-2cc2c1C(=O)C(=O)c1ccccc1-2	100	300
CCCCCCCCCCCCn1c2nc(=O)n(C)c(=O)c-2cc2ccccc21	> 50000	> 50000
CCCCCCCCCCCCn1c2nc(=O)n(C)c(=O)c-2cc2c1C(=O)C(OC)=CC2=O	100	1800
CCCCCCCCCCCCn1c2nc(=O)[nH]c(=O)c-2cc2c1C(=O)C(=O)c1ccccc1-2	3000	6900
CCCCCCCCn1c2nc(=O)[nH]c(=O)c-2cc2c1C(=O)C(OC)=CC2=O	4400	1500
CCCCCCCCn1c2nc(=O)n(C)c(=O)c-2cc2c1C(=O)C(OC)=CC2=O	400	5800
CCCCn1c2nc(=O)[nH]c(=O)c-2cc2c1C(=O)C(=O)c1ccccc1-2	2100	5200
CCCCCCCCn1c2nc(=O)[nH]c(=O)c-2cc2c1C(=O)C(=O)c1ccccc1-2	4200	3200
CCCCCCn1c2nc(=O)n(-c3ccccc3)c(=O)c-2cc2c1C(=O)C(OC)=CC2=O	1300	400
CCCCCCn1c2nc(=O)[nH]c(=O)c-2cc2c1C(=O)C(OC)=CC2=O	4800	4500
CCCCCCCCCCCCn1c2nc(=O)n(-c3ccccc3)c(=O)c-2cc2c1C(=O)C(=O)c1ccccc1-2	2800	17900
